Our source for the MIC and IC90 values is patent publication US12421211B2, “Heterocyclic compounds” (Hoffmann-La Roche Inc., priority 2021, dated 2025).

The test system of experiment [1] is Acinetobacter baumannii ATCC17978. Description: Minimal Inhibitory Concentration (MIC) assay. The experiment is classed as cell-based. The settings on record: read-out: MIC AB. ATCC17978. The method, then:
Minimal Inhibitory Concentration Protocol (MIC) Assay:
Table 2 provides the in vitro potency of the compounds of present invention obtained against the strain Acinetobacter baumannii ATCC17978, which was assessed by an MIC (Minimal Inhibitory Concentration) assay as follows.
Test compounds were prepared from 10 mM DMSO stock solutions. The top dose was diluted from 10 mM to 2.5 mM by DMSO, followed by serial 2-fold 11 points dilutions in DMSO in a master plate (Greiner, Cat No: 651201). 2 μL compounds were transferred from the master plate into a new 96-well assay plate (Costar, 3599).
The growth medium […] Mueller Hinton Broth (CAMHIB) was prepared by adding 22 g powder (BD, 212322) in 1 L purified water, autoclaved, and supplemented with sterilized CaCl2 (20 mg per liter) and MgCl2 (10 mg per liter).
Vials of each of the test microorganisms were maintained frozen in the vapor phase of a liquid nitrogen freezer. Took out the bacterial strain ATCC 17978 from liquid nitrogen freezer, thawed it at room temperature, and diluted the bacterial in the CAMHB medium to achieve a final inoculum of 2×10^5 CFU/mL. 98 μL of the adjusted bacteria suspension was dispensed to the assay plate and pipetted 5 times.
Then the assay plates were incubated for 20 hours at 35±2° C. in ambient air with humidity. Following incubation, MIC […] value, the lowest concentration of drug that inhibits visible growth of the microorganism, was recorded by visual judgment of bacterial growth through magnification mirror of MIC reader, and the assay plates were photographed with Qcount system as image raw data. Meanwhile, the D600 of assay plates was recorded with SpectraMax Plus384 as GD raw data.

Experiment [2] has as its system Acinetobacter baumannii ATCC17961. The experiment can be described thus: Antimicrobial susceptibility testing: 90% growth inhibitory concentration (IC90) determination. The settings on record: Acinetobacter baumannii, ATCC17961, 16 h, read-out: ATCC 17961 IC90. The experiment is classed as cell-based. In short, it runs like this: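 Growth inhibition derived in log phase from OD600 kinetics (every 20 minutes, 16h, 35±2° C) of ATCC17961 in Iso-Sensitest medium, inoculum ~5×10^5 CFU/ml. Compounds tested as twofold series, 10 points (e.g. 50 to 0.097 μM final); IC90 and IC50 reported.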

Setting [3] is: Acinetobacter baumannii ATCC17978, CAMHB medium, 20 hours at 35±2° C., visual reading.
Where [4] appears, read: 90% growth inhibitory concentration, Acinetobacter baumannii ATCC17961, Iso-Sensitest broth, OD 600 nm over 16 h.

Molecules are shown by their SMILES. Counter-ions that a name gives are not always drawn. Like-named read-outs stand apart in the source and are kept apart here.

Turning to `COCCn1cc(-c2ccc(-c3cnc(C(=O)Nc4ccc(C(=O)N5CCN(C(=O)C6CC[N+](C)(C)CC6)CC5)c(Cl)c4)n3C)c(F)c2F)c(Cl)n1` [Example F30, N-[3-chloro-4-[4-(1,1-dimethylpiperidin-1-ium-4-carbonyl)piperazine-1-carbonyl]phenyl]-5-[4-[3-chloro-1-(2-methoxyethyl)pyrazol-4-yl]-2,3-difluoro-phenyl]-1-methyl-imidazole-2-carboxamide; formate], the MIC – broadly, the lowest concentration found to suppress growth – in experiment [1] (setting [3]) stood at 1.19 µM. In addition, the IC90 – broadly, the concentration at which the effect reaches the 90% level – in experiment [2] (setting [4]) came to 97 nM.

In the case of `COCCn1cc(-c2ccc(-c3cnc(C(=O)Nc4ccc(C(=O)N5CCN(C(=O)C6CC[N+](C)(C)CC6)CC5)c(Cl)c4)n3C)c(F)c2F)c(-c2ccccc2)n1` [Example F49, N-[3-chloro-4-[4-(1,1-dimethylpiperidin-1-ium-4-carbonyl)piperazine-1-carbonyl]phenyl]-5-[2,3-difluoro-4-[1-(2-methoxyethyl)-3-phenyl-pyrazol-4-yl]phenyl]-1-methyl-imidazole-2-carboxamide; formate], in experiment [1] (setting [3]), the MIC was found to be 2.5 µM. In addition, the IC90 in experiment [2] (setting [4]) was 1520 nM.

As for `COCCn1ncc(-c2ccc(-c3c(Cl)nc(C(=O)Nc4ccc(C(=O)N5CCN(C(=O)C6CC[N+](C)(C)CC6)CC5)c(Cl)c4)n3C)c(F)c2F)c1C` [Example F53, 4-chloro-N-[3-chloro-4-[4-(1,1-dimethylpiperidin-1-ium-4-carbonyl)piperazine-1-carbonyl]phenyl]-5-[2,3-difluoro-4-[1-(2-methoxyethyl)-5-methyl-pyrazol-4-yl]phenyl]-1-methyl-imidazole-2-carboxamide; formate], the MIC in experiment [1] (setting [3]) is 0.6 µM. In experiment [2] (setting [4]), the IC90 was 110 nM.

Regarding `Cc1nn(CC(=O)NC2CCC[N+](C)(C)C2)cc1-c1ccc(-c2cnc(C(=O)Nc3ccc(C(=O)N4CCN(C(=O)C5CC[N+](C)(C)CC5)CC4)c(Cl)c3)n2C)c(F)c1F` (centres unmarked) [Example G24, N-[3-chloro-4-[4-(1,1-dimethylpiperidin-1-ium-4-carbonyl)piperazine-1-carbonyl]phenyl]-5-[4-[1-[2-[0,1-dimethylpiperidin-1-ium-3-yl)amino]-2-oxo-ethyl]-3-methyl-pyrazol-4-yl]-2,3-difluoro-phenyl]-1-methyl-imidazole-2-carboxamide; diformate], in experiment [1] (Acinetobacter baumannii, ATCC17978, 20 h), the MIC is 3.85 µM. Further, in experiment [2], the IC90 turned out to be 508 nM.

As to `Cn1c(-c2ccc(-c3cn[nH]c3-c3ccccn3)c(F)c2F)cnc1C(=O)Nc1ccc(C(=O)N2CCN(C(=O)C3CC[N+](C)(C)CC3)CC2)c(Cl)c1` [Example I1, N-[3-chloro-4-[4-(1,1-dimethylpiperidin-1-ium-4-carbonyl)piperazine-1-carbonyl]phenyl]-5-[2,3-difluoro-4-[5-(2-pyridyl)-1H-pyrazol-4-yl]phenyl]-1-methyl-imidazole-2-carboxamide; formate], the MIC in experiment [1] (setting [3]) turned out to be 2.32 µM. The IC90 in experiment [2] (setting [4]) is 432 nM.

For the molecule `COc1ccc(-c2[nH]ncc2-c2ccc(-c3cnc(C(=O)Nc4ccc(C(=O)N5CCN(C(=O)C6CC[N+](C)(C)CC6)CC5)c(Cl)c4)n3C)c(F)c2F)cc1` [Example I2, N-[3-chloro-4-[4-(1,1-dimethylpiperidin-1-ium-4-carbonyl)piperazine-1-carbonyl]phenyl]-5-[2,3-difluoro-4-[5-(4-methoxyphenyl)-1H-pyrazol-4-yl]phenyl]-1-methyl-imidazole-2-carboxamide; formate], in experiment [1] (setting [3]), the MIC was 2.41 µM. Further, the IC90 in experiment [2] (setting [4]) was determined as 608 nM.

Take `COc1cccc(-c2[nH]ncc2-c2ccc(-c3cnc(C(=O)Nc4ccc(C(=O)N5CCN(C(=O)C6CC[N+](C)(C)CC6)CC5)c(Cl)c4)n3C)c(F)c2F)c1` [Example I3, N-[3-chloro-4-[4-(1,1-dimethylpiperidin-1-ium-4-carbonyl)piperazine-1-carbonyl]phenyl]-5-[2,3-difluoro-4-[5-(3-methoxyphenyl)-1H-pyrazol-4-yl]phenyl]-1-methyl-imidazole-2-carboxamide; formate]: the MIC in experiment [1] (setting [3]) amounted to 1.81 µM. In experiment [2] (setting [4]), the IC90 amounted to 398 nM.
